In patent publication US20160114050A1, “Heparosan/Therapeutic Prodrug Complexes and Methods of Making and Using Same” (The Board of Regents of the University of Oklahoma, priority 2014, published 2016):

T1: mammalian heparanase (HEPase) (Homo sapiens, UniProt Q9Y251)
T1 sequence (Q9Y251 158-543 limits assumed): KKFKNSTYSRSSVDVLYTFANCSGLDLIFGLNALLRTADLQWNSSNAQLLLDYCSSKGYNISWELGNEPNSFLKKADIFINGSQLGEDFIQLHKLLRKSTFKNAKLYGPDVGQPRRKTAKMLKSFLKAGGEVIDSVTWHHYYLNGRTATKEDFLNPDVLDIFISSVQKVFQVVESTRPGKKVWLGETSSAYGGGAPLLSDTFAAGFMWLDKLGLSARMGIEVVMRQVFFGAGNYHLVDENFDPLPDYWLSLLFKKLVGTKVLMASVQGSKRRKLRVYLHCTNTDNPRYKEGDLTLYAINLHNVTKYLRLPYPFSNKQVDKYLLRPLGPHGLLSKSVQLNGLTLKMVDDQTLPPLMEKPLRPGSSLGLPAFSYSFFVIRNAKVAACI
T1 sequence (Q9Y251 36-109 limits assumed): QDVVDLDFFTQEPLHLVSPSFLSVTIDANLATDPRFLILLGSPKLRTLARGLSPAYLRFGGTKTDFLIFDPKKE


What was measured:
[1] = target: T1, mammalian heparanase (HEPase); settings: cited from earlier work
[2] = tested on: anti-heparosan antibodies; test: ELISA serological test for anti-heparosan IgG/IgM antibodies after repeated immunization; assay type: in vivo; settings: rat, multiple boosts over approximately seven months
Text: FIG. 7 depicts the serological test results for potential induction of anti-heparosan antibodies against a heparosan-containing molecule (HEP-G-CSF, heparosan sugar polymer attached to the Granulocyte Colony Stimulating Factor (G-CSF) protein) in a rat model. A control pre-immune sera was collected, and then three animals (Rat #1, #2, and #3) were immunized and periodically boosted with HEP-G-CSF eight times over an approximately seven month period followed by periodic test bleeds. The various serum samples were tested in 96-well plates via ELISA. First, the wells of the plate were coated either with: (i) bovine serum albumin (BSA) to assess the background (‘Control’ shown in grey bars); or (ii) heparosan-BSA (HEP-BSA) conjugate (‘HEP’; shown in black bars), to measure any potential immune response. After blocking all the wells with BSA and washing thoroughly, 1 μl of the pre-immunization serum (the negative control Prebleed, ‘PreB’) or post-immunization serum (collected either on week 9 (Bleed #1; B#1), week 15 (B#2), or week 30 (B#3)) was incubated with wells (the rats had 3, 5, or 9 injections of test antigen, respectively, before these three bleeds). After washing the wells, the presence of any bound rat antibodies was determined by interaction with either an anti-rat IgG (Panel A) or an anti-rat lgM (Panel B) goat secondary antibody-horseradish peroxidase conjugate. […]

Row | Molecule | HEPase? substantially sensitive to cleavage by mammalian heparanase [1] | induction of specific anti-heparosan antibodies (IgG, IgM) [2]
1 | Dermatan sulfate | No | –
2 | HEP-G-CSF (conjugate, UniProt P09919 31-207, looked up, heparosan polymer conjugate) Granulocyte …: TPLGPASSLPQSFLLKCLEQVRKIQGDGAALQEKLVSECATYKLCHPEELVLLGHSLGIPWAPLSSCPSQALQLAGCLSQLHSGLFLYQGLLQALEGISPELGPTLDTLQLDVADFATTIWQQMEELGMAPALQPTQGAMPAFASAFQRRAGGVLVASHLQSFLEVSYRVLRHLAQP | – | no specific antibodies against heparosan were observed
